Measured values: patent US9586949B2, “Aza-heteroaryl compounds as PI3K-gamma inhibitors” (Incyte Corporation, priority 2015, dated 2017)
Structures can show the parent of a compound that is named as a salt.

Key:
[1] = biological target: PI3Kγ (p110γ) Recombinant Human Protein (Homo sapiens (Human), UniProt P48736); test: PI3K-γ Scintillation Proximity Assay; assay type: biochemical; conditions: 20 μM PIP2, 2 μM ATP, 13 nM PI3Kγ, 120 min; read-out: PI3K-gamma SPA IC50
Procedure: [γ-^33P]ATP (10 mCi/mL) and Wheat Germ Agglutinin (WGA) YSi SPA Scintillation Beads was purchased from Perkin-Elmer (Waltham, Mass.). […] PI3Kγ (p110γ) Recombinant Human Protein was purchased from Life technology (Grand Island, N.Y.). ATP, MgCl2, DTT, EDTA, MOPS and CHAPS were purchased from Sigma-Aldrich (St. Louis, Mo.).
The kinase reaction was conducted in polystyrene 384-well Greiner Bio-one white plate from Thermo Fisher Scientific in a final volume of 25 μL. Inhibitors were first diluted serially in DMSO and added to the plate wells before the addition of other reaction components. The final concentration of DMSO in the assay was 2%. The PI3Kγ assay was carried out at room temperature in 20 mM MOPS, pH 6.7, 10 mM MgCl2, 5 mM DTT and CHAPS 0.03%. Reactions were initiated by the addition of ATP, the final reaction mixture consisted of 20 μM PIP2, 2 μM ATP, 0.5 μCi [γ-^33P] […] The final concentration of SPA beads is 1.0 mg/mL. After the plate sealing, plates were shaken overnight at room temperature and centrifuged at 1500 rpm for 10 min, the radioactivity of the product was determined by scintillation counting on Topcount (Perkin-Elmer). IC50 determination was performed by fitting the curve of percent of the solvent control activity versus the log of the inhibitor concentration using the GraphPad Prism 6.0 software.

[2] = biological target: PI3Kδ (p110δ/p85α) Recombinant Human Protein (Homo sapiens (Human), UniProt O00329); test: PI3Kδ Scintillation Proximity Assay; assay type: biochemical; conditions: 20 μM PIP2, 2 μM ATP, 3.4 nM PI3Kδ, 120 min; read-out: PI3K-delta SPA IC50
PI3Kδ (p110δ/p85α) Recombinant Human Protein, sequence (O00329 whole entry): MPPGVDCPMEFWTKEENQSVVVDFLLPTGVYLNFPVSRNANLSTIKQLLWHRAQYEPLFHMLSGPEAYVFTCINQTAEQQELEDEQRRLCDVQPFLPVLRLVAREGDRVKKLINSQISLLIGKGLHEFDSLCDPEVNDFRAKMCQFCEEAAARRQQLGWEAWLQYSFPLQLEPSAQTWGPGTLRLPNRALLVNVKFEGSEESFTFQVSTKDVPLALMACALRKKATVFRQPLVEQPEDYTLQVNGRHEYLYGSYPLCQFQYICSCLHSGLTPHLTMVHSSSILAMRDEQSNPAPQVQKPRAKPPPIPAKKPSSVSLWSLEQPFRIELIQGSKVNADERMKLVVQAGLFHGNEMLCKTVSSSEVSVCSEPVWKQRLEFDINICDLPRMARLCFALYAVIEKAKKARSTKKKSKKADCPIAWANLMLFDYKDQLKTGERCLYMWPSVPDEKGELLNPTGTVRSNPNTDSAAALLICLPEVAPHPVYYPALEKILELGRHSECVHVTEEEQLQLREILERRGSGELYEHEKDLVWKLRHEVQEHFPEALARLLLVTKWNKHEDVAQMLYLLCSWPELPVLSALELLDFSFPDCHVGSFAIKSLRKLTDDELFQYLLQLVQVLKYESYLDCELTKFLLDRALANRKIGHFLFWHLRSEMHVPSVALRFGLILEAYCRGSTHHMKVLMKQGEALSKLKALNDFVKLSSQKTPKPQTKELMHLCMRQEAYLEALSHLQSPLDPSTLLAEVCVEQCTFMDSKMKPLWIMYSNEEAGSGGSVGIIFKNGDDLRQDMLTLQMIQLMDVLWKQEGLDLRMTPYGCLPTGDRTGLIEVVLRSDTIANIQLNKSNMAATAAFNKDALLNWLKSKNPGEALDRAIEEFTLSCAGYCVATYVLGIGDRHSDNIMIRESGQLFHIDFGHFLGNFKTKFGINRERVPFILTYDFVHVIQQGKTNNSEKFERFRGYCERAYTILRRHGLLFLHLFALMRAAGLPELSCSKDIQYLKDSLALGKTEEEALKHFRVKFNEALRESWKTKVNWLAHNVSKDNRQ
PI3Kδ (p110δ/p85α) Recombinant Human Protein, sequence (P27986 whole entry partner): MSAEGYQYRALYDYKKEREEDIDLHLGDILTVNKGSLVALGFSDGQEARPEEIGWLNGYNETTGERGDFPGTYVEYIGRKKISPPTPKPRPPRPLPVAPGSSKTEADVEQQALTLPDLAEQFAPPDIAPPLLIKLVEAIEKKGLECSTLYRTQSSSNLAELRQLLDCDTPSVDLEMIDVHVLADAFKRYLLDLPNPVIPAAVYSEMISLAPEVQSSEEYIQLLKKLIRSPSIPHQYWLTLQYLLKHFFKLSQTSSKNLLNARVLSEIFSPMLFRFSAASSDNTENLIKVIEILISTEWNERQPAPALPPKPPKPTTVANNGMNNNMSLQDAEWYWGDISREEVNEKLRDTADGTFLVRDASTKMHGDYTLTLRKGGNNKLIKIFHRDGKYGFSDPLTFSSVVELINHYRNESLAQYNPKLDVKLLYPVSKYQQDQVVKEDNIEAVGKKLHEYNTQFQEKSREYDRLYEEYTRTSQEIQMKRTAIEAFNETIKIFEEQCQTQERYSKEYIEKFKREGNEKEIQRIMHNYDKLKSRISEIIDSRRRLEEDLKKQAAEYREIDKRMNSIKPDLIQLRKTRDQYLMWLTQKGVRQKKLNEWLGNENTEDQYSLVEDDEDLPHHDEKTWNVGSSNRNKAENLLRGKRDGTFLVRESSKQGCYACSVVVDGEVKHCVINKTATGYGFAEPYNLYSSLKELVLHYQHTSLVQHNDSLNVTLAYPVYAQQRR
From the text: [γ-^33P]ATP (10 mCi/mL) and Wheat Germ Agglutinin (WGA) YSi SPA Scintillation Beads was purchased from Perkin-Elmer (Waltham, Mass.). Lipid kinase substrate, D-myo-Phosphatidylinositol 4,5-bisphosphate (PtdIns(4,5)P2)D (+)-sn-1,2-di-O-octanoylglyceryl, 3-O-phospho linked (PIP2), CAS 204858-53-7, was purchased from Echelon Biosciences (Salt Lake City, Utah). PI3Kδ (p110δ/p85α) Recombinant Human Protein was purchased from Eurofins (St Charles, Mo.). ATP, MgCl2, DTT, EDTA, MOPS and CHAPS were purchased from Sigma-Aldrich (St. Louis, Mo.).
The kinase reaction was conducted in polystyrene 384-well Greiner Bio-one white plate from Thermo Fisher Scientific in a final volume of 25 μL. Inhibitors were first diluted serially in DMSO and added to the plate wells before the addition of other reaction components. The final concentration of DMSO in the assay was 2%. The PI3Kδ assay was carried out at room temperature in 20 mM MOPS, pH 6.7, 10 mM MgCl2, 5 mM DTT and CHAPS 0.03%. Reactions were initiated by the addition of ATP, the final reaction mixture consisted of 20 μM PIP2, 2 μM ATP, 0.5 μCi [γ-^33P] ATP, 3.4 nM PI3Kδ. Reactions were incubated for 120 min and terminated by the addition of 40 μL SPA beads suspended in quench buffer: 163 mM potassium phosphate pH 7.8, 20% glycerol, 25 mM EDTA. The final concentration of SPA beads is 1.0 mg/mL. After the plate sealing, plates were shaken overnight at room temperature and centrifuged at 1500 rpm for 10 min, the radioactivity of the product was determined by scintillation counting on Topcount (Perkin-Elmer). IC50 determination was performed by fitting the curve of percent of the solvent control activity versus the log of the inhibitor concentration using the GraphPad Prism 6.0 software.

PI3Kγ (p110γ) Recombinant Human Protein, sequence (P48736 whole entry): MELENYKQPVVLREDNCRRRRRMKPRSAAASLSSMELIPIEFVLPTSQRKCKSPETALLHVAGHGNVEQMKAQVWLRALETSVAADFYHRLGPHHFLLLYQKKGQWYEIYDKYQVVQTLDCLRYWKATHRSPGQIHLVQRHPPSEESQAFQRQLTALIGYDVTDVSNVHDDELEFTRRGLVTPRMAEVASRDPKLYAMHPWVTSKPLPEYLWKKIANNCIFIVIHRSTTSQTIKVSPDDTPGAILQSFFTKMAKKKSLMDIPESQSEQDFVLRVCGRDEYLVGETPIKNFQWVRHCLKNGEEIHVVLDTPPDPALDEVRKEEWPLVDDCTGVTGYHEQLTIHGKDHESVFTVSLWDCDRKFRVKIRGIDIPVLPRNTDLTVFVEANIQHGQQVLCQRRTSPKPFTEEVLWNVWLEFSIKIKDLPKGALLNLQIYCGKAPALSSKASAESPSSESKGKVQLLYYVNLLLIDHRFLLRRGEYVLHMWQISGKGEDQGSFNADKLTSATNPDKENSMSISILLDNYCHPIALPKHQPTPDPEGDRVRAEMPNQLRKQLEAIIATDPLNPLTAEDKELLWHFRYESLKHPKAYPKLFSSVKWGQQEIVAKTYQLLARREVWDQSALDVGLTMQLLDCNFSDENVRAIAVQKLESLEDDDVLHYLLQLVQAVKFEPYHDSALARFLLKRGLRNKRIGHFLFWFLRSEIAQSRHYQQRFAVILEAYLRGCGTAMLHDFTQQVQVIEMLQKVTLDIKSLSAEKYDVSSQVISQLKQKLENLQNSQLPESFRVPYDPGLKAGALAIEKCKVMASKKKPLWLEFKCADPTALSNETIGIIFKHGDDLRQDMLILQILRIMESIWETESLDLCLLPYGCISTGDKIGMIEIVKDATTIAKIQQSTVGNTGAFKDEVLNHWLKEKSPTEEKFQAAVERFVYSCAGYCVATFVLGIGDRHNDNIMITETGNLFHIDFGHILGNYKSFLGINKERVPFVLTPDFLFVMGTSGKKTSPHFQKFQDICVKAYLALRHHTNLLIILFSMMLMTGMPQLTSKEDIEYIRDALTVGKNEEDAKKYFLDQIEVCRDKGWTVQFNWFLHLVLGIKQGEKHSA

Structure (SMILES)	IC50 [1] [nM]	IC50 [2] [nM]
CC(=O)Nc1cncc(-c2ccc3nc(-c4nc5ccccc5[nH]4)oc3c2)c1 [Example 33, N-(5-(2-(1H-Benzo[d]imidazol-2-yl)benzo[d]oxazol-6-yl)pyridin-3-yl)acetamide]	< 1000	≥ 5000
CN(C)c1cncc(-c2ccc3nc(-c4nc5ccccc5[nH]4)oc3c2)c1 [Example 34, 5-(2-(1H-Benzo[d]imidazol-2-yl)benzo[d]oxazol-6-yl)-N,N-dimethylpyridin-3-amine]	< 250	< 5000
CCS(=O)(=O)Nc1cc(-c2ccc3nc(-c4nc5ccccc5[nH]4)oc3c2)ccc1F [Example 60, N-{5-[2-(1H-Benzimidazol-2-yl)-1,3-benzoxazol-6-yl]-2-fluorophenyl}ethanesulfonamide]	< 250	≥ 5000
CN(C)S(=O)(=O)Nc1cncc(-c2ccc3nc(-c4nc5ccccc5[nH]4)oc3c2)c1 [Example 21, N′-{5-[2-(1H-Benzimidazol-2-yl)-1,3-benzoxazol-6-yl]-pyridin-3-yl}-N,N-dimethylsulfamide]	< 250	< 1000
OC(c1cncc(-c2ccc3nc(-c4nc5ccccc5[nH]4)oc3c2)c1)C(F)(F)F (stereo not shown) [Example 74, 1-(5-(2-(1H-Benzo [d]imidazol-2-yl)benzo [d]oxazol-6-yl)pyridin-3-yl)-2,2,2-trifluoroethanol bis(trifluoroacetate)]	< 250	< 250
COc1cncc(-c2ccc3nc(-c4ccc[nH]4)oc3c2)c1 [Example 3, 6-(5-Methoxypyridin-3-yl)-2-(1H-pyrrol-2-yl)benzo[d]oxazole trifluoroacetate]	< 5000	< 5000
CCS(=O)(=O)Nc1cncc(-c2ccc3nc(-c4nc(C)c(C)[nH]4)oc3c2)c1 [Example 63, N-(5-(2-(4,5-Dimethyl-1H-imidazol-2-yl)benzo[d]oxazol-6-yl)pyridin-3-yl)ethanesulfonamide bis(trifluoroacetate)]	< 250	< 1000
O=S(=O)(c1cncc(-c2ccc3nc(-c4nc5ccccc5[nH]4)oc3c2)c1)N1CCC(O)C1 (stereo not shown) [Example 58, 1-({5-[2-(1H-Benzimidazol-2-yl)-1,3-benzoxazol-6-yl]pyridin-3-yl}sulfonyl)pyrrolidin-3-ol bis(trifluoroacetate)]	< 250	< 1000
CCS(=O)(=O)Nc1cc(-c2ccc3nc(-c4nc5ccccc5[nH]4)oc3c2)ncc1F [Example 78, N-(2-(2-(1H-Benzo [d]imidazol-2-yl)benzo[d]oxazol-6-yl)-5-fluoropyridin-4-yl) ethanesulfonamide bis(trifluoroacetate)]	< 5000	< 5000
CC(C)Oc1cncc(-c2ccc3nc(-c4nc5ccccc5[nH]4)oc3c2)c1 [Example 15, 2-(1H-Benzo[d]imidazol-2-yl)-6-(5-isopropoxypyridin-3-yl)benzo[d]oxazole]	< 1000	< 5000
CCS(=O)(=O)Nc1cc(-c2ccc3nc(-c4nc5ccccc5[nH]4)oc3c2)cnc1Cl [Example 26, N-(5-(2-(1H-Benzo[d]imidazol-2-yl)benzo[d]oxazol-6-yl)-2-chloropyridin-3-yl)ethanesulfonamide]	< 250	≥ 5000
COc1cncc(-c2ccc3nc(-c4cnc(-c5ccccc5)[nH]4)oc3c2)c1 [Example 44, 6-(5-Methoxy-pyridin-3-yl)-2-(2-phenyl-1H-imidazol-5-yl)benzo[d] oxazole]	< 250	≥ 5000
CN1CCN(S(=O)(=O)Nc2cncc(-c3ccc4nc(-c5nc6ccccc6[nH]5)oc4c3)c2)CC1 [Example 31, N-(5-(2-(1H-Benzo[d]imidazol-2-yl)benzo[d]oxazol-6-yl)pyridin-3-yl)-4-methylpiperazine-1-sulfonamide]	< 250	< 250
CC(C)S(=O)(=O)Nc1cncc(-c2ccc3nc(-c4nc5ccccc5[nH]4)oc3c2)c1 [Example 24, N-(5-(2-(1H-Benzo[d]imidazol-2-yl)benzo[d]oxazol-6-yl)pyridin-3-yl)propane-2-sulfonamide]	< 250	< 5000
Cc1n[nH]c2ccc(-c3ccc4nc(-c5nc6ccccc6[nH]5)oc4c3)cc12 [Example 50, 2-(1H-Benzimidazol-2-yl)-6-(3-methyl-1H-indazol-5-yl)-1,3-benzoxazole]	< 250	< 250
CCS(=O)(=O)Nc1cc(-c2ccc3nc(-c4nc(C)c(C)[nH]4)oc3c2)cnc1OC [Example 65, N-(5-(2-(4,5-Dimethyl-1H-imidazol-2-yl)benzo[d]oxazol-6-yl)-2-methoxypyridin-3-yl)ethanesulfonamide bis(trifluoroacetate)]	< 250	< 250

Continued, values first:

IC50 [1] [nM]	IC50 [2] [nM]	Structure (SMILES)
< 250	≥ 5000	N#Cc1cncc(-c2ccc3nc(-c4nc5ccccc5[nH]4)oc3c2)c1 [Example 35, 5-(2-(1H-Benzo[d]imidazol-2-yl)benzo[d]oxazol-6-yl)nicotinonitrile]
< 250	< 250	Cc1nc(-c2nc3ccc(-c4cncc(C(O)C(F)(F)F)c4)cc3o2)[nH]c1C (stereo not shown) [Example 67, 1-(5-(2-(4,5-Dimethyl-1H-imidazol-2-yl)benzo[d]oxazol-6-yl)pyridin-3-yl)-2,2,2-trifluoroethanol bis(trifluoroacetate)]
< 250	< 1000	CCS(=O)(=O)Nc1cncc(-c2ccc3nc(-c4ncc[nH]4)oc3c2)c1 [Example 40, N-(5-(2-(1H-Imidazol-2-yl)benzo[d]oxazol-6-yl)pyridin-3-yl)ethanesulf-onamide]
< 1000	≥ 5000	Fc1ncc(-c2ccc3nc(-c4nc5ccccc5[nH]4)oc3c2)cn1 [Example 70, 2-(1H-Benzo[d]imidazol-2-yl)-6-(2-fluoro-pyrimidin-5-yl)benzo[d] oxazole bis(trifluoroacetate)]
< 1000	≥ 5000	COc1cncc(-c2ccc3nc(-c4nc5ccccc5[nH]4)ccc3c2)c1 [Example 7, 2-(1H-Benzo[d]imidazol-2-yl)-6-(5-methoxypyridin-3-yl)quinoline]
< 250	≥ 5000	CCNS(=O)(=O)c1cncc(-c2ccc3nc(-c4nc5ccccc5[nH]4)oc3c2)c1 [Example 59, 5-[2-(1H-Benzimidazol-2-yl)-1,3-benzoxazol-6-yl]-N-ethylpyridine-3-sulfonamide bis(trifluoroacetate)]
< 250	≥ 5000	CCn1cc2ccc(-c3ccc4nc(-c5nc6ccccc6[nH]5)oc4c3)cc2n1 [Example 53, 2-(1H-benzimidazol-2-yl)-6-(2-ethyl-2H-indazol-6-yl)-1,3-benzoxazole bis(trifluoroacetate)]
< 250	< 5000	Oc1cncc(-c2ccc3nc(-c4nc5ccccc5[nH]4)oc3c2)c1 [Example 14, 5-(2-(1H-Benzo[d]imidazol-2-yl)benzo[d]oxazol-6-yl)pyridin-3-ol]
< 250	< 250	OC(c1cncc(-c2ccc3nc(-c4nc5c([nH]4)CCCC5)oc3c2)c1)C(F)(F)F (stereo not shown) [Example 68, 2,2,2-Trifluoro-1-(5-(2-(4,5,6,7-tetrahydro-1H-benzo[d]imidazol-2-yl)benzo[d]oxazol-6-yl)pyridin-3-yl)ethanol]
< 250	< 250	O=S(=O)(Nc1cncc(-c2ccc3nc(-c4nc5ccccc5[nH]4)oc3c2)c1)c1cccc(F)c1 [Example 19, N-(5-(2-(1H-Benzo[d]imidazol-2-yl)benzo[d]oxazol-6-yl)pyridin-3-yl)-3-fluorobenzenesulfonamide]
